Test results from ChEMBL document CHEMBL1201862, “PubChem BioAssay data set” (2004).
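48-hour exposure; five concentrations; linearly interpolated endpoints. The concentration for 50% growth inhibition is given as GI50.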 Active and inactive are the calls of the source. Cut-off read from the data, not from the text of the source: active = GI50 up to about 1.1 µM and inactive = higher.

Legend:
Experiment in all cases: NCI-60 cell line screen, 48 h
786-0 = tested on: 786-0
A498 = tested on: A498
A549 = tested on: A549
ACHN = tested on: ACHN
BT-549 = tested on: BT-549
CAKI-1 = tested on: CAKI-1
CCRF-CEM = tested on: CCRF-CEM
COLO 205 = tested on: COLO 205
DU-145 = tested on: DU-145
EKVX = tested on: EKVX
HCC 2998 = tested on: HCC 2998
HCT-116 = tested on: HCT-116
HCT-15 = tested on: HCT-15
HL-60 = tested on: HL-60
HOP-62 = tested on: HOP-62
HOP-92 = tested on: HOP-92
HT-29 = tested on: HT-29
Hs-578T = tested on: Hs-578T
IGROV-1 = tested on: IGROV-1
K562 = tested on: K562
KM12 = tested on: KM12
LOX IMVI = tested on: LOX IMVI
M14 = tested on: M14
MCF7 = tested on: MCF7
MDA-MB-231 = tested on: MDA-MB-231
MDA-MB-435 = tested on: MDA-MB-435
MDA-N = tested on: MDA-N
MOLT-4 = tested on: MOLT-4
Malme-3M = tested on: Malme-3M
NCI-H226 = tested on: NCI-H226
NCI-H23 = tested on: NCI-H23
NCI-H460 = tested on: NCI-H460
NCI-H522 = tested on: NCI-H522
NCI/ADR-RES = tested on: NCI/ADR-RES
OVCAR-3 = tested on: OVCAR-3
OVCAR-4 = tested on: OVCAR-4
OVCAR-5 = tested on: OVCAR-5
OVCAR-8 = tested on: OVCAR-8
PC-3 = tested on: PC-3
RPMI-8226 = tested on: RPMI-8226
RXF 393 = tested on: RXF 393
SF-268 = tested on: SF-268
SF-295 = tested on: SF-295
SF-539 = tested on: SF-539
SK-MEL-28 = tested on: SK-MEL-28
SK-MEL-2 = tested on: SK-MEL-2
SK-MEL-5 = tested on: SK-MEL-5
SK-OV-3 = tested on: SK-OV-3
SN12C = tested on: SN12C
SNB-19 = tested on: SNB-19
SNB-75 = tested on: SNB-75
SR = tested on: SR
SW-620 = tested on: SW-620
T47D = tested on: T47D
TK-10 = tested on: TK-10
U-251 = tested on: U-251
UACC-257 = tested on: UACC-257
UACC-62 = tested on: UACC-62
UO-31 = tested on: UO-31

COc1nc2c(c(=O)n1C)NC(C(O)C(O)CO)C=N2 (stereo not drawn)
GI50 (786-0): > 10 µM (inactive) | GI50 (A498): > 10 µM (inactive) | GI50 (A549): > 10 µM (inactive) | GI50 (ACHN): > 10 µM (inactive) | GI50 (BT-549): > 10 µM (inactive) | GI50 (CAKI-1): > 10 µM (inactive) | GI50 (CCRF-CEM): > 10 µM (inactive) | GI50 (COLO 205): > 10 µM (inactive) | GI50 (DU-145): > 10 µM (inactive) | GI50 (EKVX): > 10 µM (inactive) | GI50 (HCC 2998): > 10 µM (inactive) | GI50 (HCT-116): > 10 µM (inactive) | GI50 (HCT-15): > 10 µM | GI50 (HL-60): > 10 µM (inactive) | GI50 (HOP-62): > 10 µM (inactive) | GI50 (HOP-92): > 10 µM (inactive) | GI50 (HT-29): > 10 µM (inactive) | GI50 (Hs-578T): > 10 µM (inactive) | GI50 (IGROV-1): > 10 µM (inactive) | GI50 (K562): > 10 µM (inactive) | GI50 (KM12): > 10 µM (inactive) | GI50 (LOX IMVI): > 10 µM (inactive) | GI50 (M14): > 10 µM (inactive) | GI50 (MCF7): > 10 µM (inactive) | GI50 (MDA-MB-231): > 10 µM (inactive) | GI50 (MDA-MB-435): > 10 µM (inactive) | GI50 (MDA-N): > 10 µM (inactive) | GI50 (MOLT-4): > 10 µM (inactive) | GI50 (Malme-3M): > 10 µM (inactive) | GI50 (NCI-H226): > 10 µM (inactive) | GI50 (NCI-H23): > 10 µM (inactive) | GI50 (NCI-H460): > 10 µM (inactive) | GI50 (NCI-H522): > 10 µM (inactive) | GI50 (NCI/ADR-RES): > 10 µM (inactive) | GI50 (OVCAR-3): > 10 µM (inactive) | GI50 (OVCAR-4): > 10 µM (inactive) | GI50 (OVCAR-5): > 10 µM (inactive) | GI50 (OVCAR-8): > 10 µM (inactive) | GI50 (PC-3): > 10 µM (inactive) | GI50 (RPMI-8226): > 10 µM (inactive) | GI50 (RXF 393): > 10 µM (inactive) | GI50 (SF-268): > 10 µM (inactive) | GI50 (SF-295): > 10 µM (inactive) | GI50 (SF-539): > 10 µM (inactive) | GI50 (SK-MEL-28): > 10 µM (inactive) | GI50 (SK-MEL-2): > 10 µM (inactive) | GI50 (SK-MEL-5): > 10 µM (inactive) | GI50 (SK-OV-3): > 10 µM (inactive) | GI50 (SN12C): > 10 µM (inactive) | GI50 (SNB-19): > 10 µM (inactive) | GI50 (SNB-75): > 10 µM (inactive) | GI50 (SR): > 10 µM (inactive) | GI50 (SW-620): > 10 µM (inactive) | GI50 (T47D): > 10 µM (inactive) | GI50 (TK-10): > 10 µM (inactive) | GI50 (U-251): > 10 µM (inactive) | GI50 (UACC-257): > 10 µM (inactive) | GI50 (UACC-62): > 10 µM (inactive) | GI50 (UO-31): > 10 µM (inactive)

COc1ccc(/C=N/n2c(-c3ccccc3)n[nH]c2=O)c(OC)c1
GI50 (786-0): 30.5 µM (inactive) | GI50 (A498): 31.6 µM (inactive) | GI50 (A549): 36.7 µM (inactive) | GI50 (ACHN): 29 µM (inactive) | GI50 (BT-549): 4.41 µM (inactive) | GI50 (CAKI-1): 41.2 µM (inactive) | GI50 (CCRF-CEM): > 100 µM (inactive) | GI50 (COLO 205): > 100 µM (inactive) | GI50 (DU-145): > 100 µM (inactive) | GI50 (EKVX): 38.5 µM (inactive) | GI50 (HCC 2998): > 100 µM (inactive) | GI50 (HCT-116): 54.5 µM (inactive) | GI50 (HCT-15): > 100 µM | GI50 (HL-60): > 100 µM (inactive) | GI50 (HOP-62): 29.8 µM (inactive) | GI50 (HOP-92): 36.5 µM (inactive) | GI50 (HT-29): 26.6 µM (inactive) | GI50 (Hs-578T): 37.2 µM (inactive) | GI50 (IGROV-1): 36.9 µM (inactive) | GI50 (K562): > 100 µM (inactive) | GI50 (KM12): 45.8 µM (inactive) | GI50 (LOX IMVI): 47.4 µM (inactive) | GI50 (M14): 98.2 µM (inactive) | GI50 (MCF7): 49.4 µM (inactive) | GI50 (MDA-MB-231): 51.5 µM (inactive) | GI50 (MDA-MB-435): > 100 µM (inactive) | GI50 (MDA-N): > 100 µM (inactive) | GI50 (MOLT-4): > 100 µM (inactive) | GI50 (Malme-3M): > 100 µM (inactive) | GI50 (NCI-H226): 51.1 µM (inactive) | GI50 (NCI-H23): 39.4 µM (inactive) | GI50 (NCI-H460): 51.1 µM (inactive) | GI50 (NCI-H522): > 52.2 µM (inactive) | GI50 (NCI/ADR-RES): 29.2 µM (inactive) | GI50 (OVCAR-3): 79.6 µM (inactive) | GI50 (OVCAR-4): 27 µM (inactive) | GI50 (OVCAR-5): > 92.9 µM (inactive) | GI50 (OVCAR-8): 29.9 µM (inactive) | GI50 (PC-3): 50.1 µM (inactive) | GI50 (RPMI-8226): > 100 µM (inactive) | GI50 (RXF 393): 29.3 µM (inactive) | GI50 (SF-268): 22.3 µM (inactive) | GI50 (SF-295): 32.7 µM (inactive) | GI50 (SF-539): 28.4 µM (inactive) | GI50 (SK-MEL-28): > 100 µM (inactive) | GI50 (SK-MEL-2): 48.2 µM (inactive) | GI50 (SK-MEL-5): > 68.9 µM (inactive) | GI50 (SK-OV-3): 31.8 µM (inactive) | GI50 (SN12C): 44 µM (inactive) | GI50 (SNB-19): 1.13 µM (inactive) | GI50 (SNB-75): 27 µM (inactive) | GI50 (SR): > 100 µM (inactive) | GI50 (SW-620): > 100 µM (inactive) | GI50 (T47D): 50 µM (inactive) | GI50 (TK-10): 27 µM (inactive) | GI50 (U-251): 40.6 µM (inactive) | GI50 (UACC-257): > 100 µM (inactive) | GI50 (UACC-62): 43.9 µM (inactive) | GI50 (UO-31): 24.4 µM (inactive)
